Here are results for 10 compounds from ChEMBL document CHEMBL5465560, “Selectivity Literature for EUbOPEN Chemogenomic Library” (2024).

The target in assay [1] is T1, Ephrin type-B receptor 2 (Homo sapiens) (UniProt P29323).
T1 sequence (whole entry): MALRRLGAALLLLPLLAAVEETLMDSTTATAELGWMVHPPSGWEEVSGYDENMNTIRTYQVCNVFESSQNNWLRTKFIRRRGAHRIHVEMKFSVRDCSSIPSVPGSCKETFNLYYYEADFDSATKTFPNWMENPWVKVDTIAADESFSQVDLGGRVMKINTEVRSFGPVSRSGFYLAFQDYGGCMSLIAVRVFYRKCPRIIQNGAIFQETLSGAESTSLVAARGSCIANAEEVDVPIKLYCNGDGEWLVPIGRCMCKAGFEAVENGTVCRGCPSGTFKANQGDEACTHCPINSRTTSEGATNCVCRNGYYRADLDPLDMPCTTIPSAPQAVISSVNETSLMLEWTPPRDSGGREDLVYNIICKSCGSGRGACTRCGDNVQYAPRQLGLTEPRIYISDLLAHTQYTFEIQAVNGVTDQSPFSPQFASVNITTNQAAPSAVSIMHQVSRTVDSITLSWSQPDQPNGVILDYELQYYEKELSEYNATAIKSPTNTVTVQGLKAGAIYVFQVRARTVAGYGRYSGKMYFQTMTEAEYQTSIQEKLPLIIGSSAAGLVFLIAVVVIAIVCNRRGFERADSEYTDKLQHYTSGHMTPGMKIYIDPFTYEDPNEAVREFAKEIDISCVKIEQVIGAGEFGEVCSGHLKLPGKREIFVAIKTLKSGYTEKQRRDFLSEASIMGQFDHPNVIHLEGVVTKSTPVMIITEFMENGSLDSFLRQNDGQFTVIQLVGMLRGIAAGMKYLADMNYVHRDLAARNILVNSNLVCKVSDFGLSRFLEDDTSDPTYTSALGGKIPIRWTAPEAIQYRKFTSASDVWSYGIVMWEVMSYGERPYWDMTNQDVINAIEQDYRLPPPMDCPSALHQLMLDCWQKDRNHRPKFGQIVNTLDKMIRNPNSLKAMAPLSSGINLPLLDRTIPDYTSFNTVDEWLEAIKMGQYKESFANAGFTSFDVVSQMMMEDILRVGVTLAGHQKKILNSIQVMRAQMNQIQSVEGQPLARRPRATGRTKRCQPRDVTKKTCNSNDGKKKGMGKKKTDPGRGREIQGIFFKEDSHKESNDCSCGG
In words: Selectivity interaction (Kinase panel (Z-LYTE Assay)) EUB0001632a EPHB2. The settings on record: at 10 µM.

The target of assay [2] is Protein kinase C delta type (Homo sapiens) (UniProt Q05655). As to conditions: at 10 µM.
Protein kinase C delta type (Homo sapiens), sequence (Q05655 whole entry, looked up): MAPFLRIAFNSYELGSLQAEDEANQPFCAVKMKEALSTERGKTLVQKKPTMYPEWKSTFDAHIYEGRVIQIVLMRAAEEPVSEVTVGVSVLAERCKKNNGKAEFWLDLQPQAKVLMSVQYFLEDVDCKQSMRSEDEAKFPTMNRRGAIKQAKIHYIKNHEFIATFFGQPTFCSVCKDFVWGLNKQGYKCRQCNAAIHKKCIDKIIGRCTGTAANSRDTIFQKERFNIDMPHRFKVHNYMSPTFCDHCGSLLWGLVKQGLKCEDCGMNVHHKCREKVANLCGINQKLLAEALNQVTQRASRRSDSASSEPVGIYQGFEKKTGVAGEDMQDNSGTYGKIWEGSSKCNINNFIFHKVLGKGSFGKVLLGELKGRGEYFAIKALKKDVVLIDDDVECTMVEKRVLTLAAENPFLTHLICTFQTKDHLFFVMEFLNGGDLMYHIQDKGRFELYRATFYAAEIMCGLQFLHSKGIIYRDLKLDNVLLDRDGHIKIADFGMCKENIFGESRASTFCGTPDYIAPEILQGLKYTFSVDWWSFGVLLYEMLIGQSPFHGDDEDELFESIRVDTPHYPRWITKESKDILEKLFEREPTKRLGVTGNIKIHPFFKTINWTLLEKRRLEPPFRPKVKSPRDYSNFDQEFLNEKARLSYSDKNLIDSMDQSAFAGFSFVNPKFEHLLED
The target in assay [3] is RAC-gamma serine/threonine-protein kinase (Homo sapiens, UniProt Q9Y243). Briefly: Selectivity interaction (Kinase panel (DSF assay)) EUB0001558a AKT3.
RAC-gamma serine/threonine-protein kinase, sequence (Q9Y243 whole entry): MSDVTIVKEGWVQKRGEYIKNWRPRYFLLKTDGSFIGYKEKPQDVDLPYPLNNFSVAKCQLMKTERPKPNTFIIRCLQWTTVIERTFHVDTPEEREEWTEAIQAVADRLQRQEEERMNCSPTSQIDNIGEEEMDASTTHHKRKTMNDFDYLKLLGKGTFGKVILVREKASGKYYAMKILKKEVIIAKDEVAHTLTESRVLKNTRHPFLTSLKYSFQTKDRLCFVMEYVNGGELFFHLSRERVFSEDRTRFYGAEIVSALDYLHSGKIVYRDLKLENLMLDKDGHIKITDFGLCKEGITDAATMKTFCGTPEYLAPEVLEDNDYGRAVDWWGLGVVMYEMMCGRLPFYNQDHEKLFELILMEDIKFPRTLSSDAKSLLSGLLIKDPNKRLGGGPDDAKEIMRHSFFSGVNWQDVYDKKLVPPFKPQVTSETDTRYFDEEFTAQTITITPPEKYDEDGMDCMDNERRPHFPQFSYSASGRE
The target in assay [4] is Mitogen-activated protein kinase kinase kinase 14 (Homo sapiens) (UniProt Q99558). Briefly: Selectivity interaction (KinomeScan (DiscoverX)) EUB0000229b MAP3K14. As to conditions: at 10 µM.
Mitogen-activated protein kinase kinase kinase 14 (Homo sapiens), sequence (Q99558 whole entry, looked up): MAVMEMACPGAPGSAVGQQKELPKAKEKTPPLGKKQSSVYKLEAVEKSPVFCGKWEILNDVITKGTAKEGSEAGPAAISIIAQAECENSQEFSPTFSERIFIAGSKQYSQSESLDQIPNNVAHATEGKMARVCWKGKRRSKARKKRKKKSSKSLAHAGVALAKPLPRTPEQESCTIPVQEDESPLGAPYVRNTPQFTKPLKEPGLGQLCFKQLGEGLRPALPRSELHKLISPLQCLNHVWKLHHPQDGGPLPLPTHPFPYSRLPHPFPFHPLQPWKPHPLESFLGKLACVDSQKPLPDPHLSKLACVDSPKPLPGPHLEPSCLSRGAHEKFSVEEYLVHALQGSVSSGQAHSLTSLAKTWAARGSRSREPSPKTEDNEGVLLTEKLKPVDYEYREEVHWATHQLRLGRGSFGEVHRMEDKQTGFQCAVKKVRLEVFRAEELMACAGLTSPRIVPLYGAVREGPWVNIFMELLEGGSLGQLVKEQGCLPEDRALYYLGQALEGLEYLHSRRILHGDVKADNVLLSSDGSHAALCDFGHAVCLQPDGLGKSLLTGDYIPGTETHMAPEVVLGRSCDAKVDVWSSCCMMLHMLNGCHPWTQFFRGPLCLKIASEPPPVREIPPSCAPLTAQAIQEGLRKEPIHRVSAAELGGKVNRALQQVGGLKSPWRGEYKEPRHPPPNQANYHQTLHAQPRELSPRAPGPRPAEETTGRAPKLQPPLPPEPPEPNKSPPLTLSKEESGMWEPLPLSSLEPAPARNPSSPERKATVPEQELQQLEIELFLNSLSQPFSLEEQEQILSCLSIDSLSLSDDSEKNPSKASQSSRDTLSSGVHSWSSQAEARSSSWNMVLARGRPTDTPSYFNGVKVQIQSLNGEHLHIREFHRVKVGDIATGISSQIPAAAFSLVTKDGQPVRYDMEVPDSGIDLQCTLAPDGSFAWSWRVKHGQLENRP
Assay [5] deals with Maternal embryonic leucine zipper kinase (Homo sapiens) (UniProt Q14680). In words: Selectivity interaction (KinomeScan (DiscoverX)) EUB0000655a MELK. As to conditions: at 10 µM.
Assay [6] has as its target T2, Serine/threonine-protein kinase ULK1 (Homo sapiens) (UniProt O75385).
T2 sequence (whole entry): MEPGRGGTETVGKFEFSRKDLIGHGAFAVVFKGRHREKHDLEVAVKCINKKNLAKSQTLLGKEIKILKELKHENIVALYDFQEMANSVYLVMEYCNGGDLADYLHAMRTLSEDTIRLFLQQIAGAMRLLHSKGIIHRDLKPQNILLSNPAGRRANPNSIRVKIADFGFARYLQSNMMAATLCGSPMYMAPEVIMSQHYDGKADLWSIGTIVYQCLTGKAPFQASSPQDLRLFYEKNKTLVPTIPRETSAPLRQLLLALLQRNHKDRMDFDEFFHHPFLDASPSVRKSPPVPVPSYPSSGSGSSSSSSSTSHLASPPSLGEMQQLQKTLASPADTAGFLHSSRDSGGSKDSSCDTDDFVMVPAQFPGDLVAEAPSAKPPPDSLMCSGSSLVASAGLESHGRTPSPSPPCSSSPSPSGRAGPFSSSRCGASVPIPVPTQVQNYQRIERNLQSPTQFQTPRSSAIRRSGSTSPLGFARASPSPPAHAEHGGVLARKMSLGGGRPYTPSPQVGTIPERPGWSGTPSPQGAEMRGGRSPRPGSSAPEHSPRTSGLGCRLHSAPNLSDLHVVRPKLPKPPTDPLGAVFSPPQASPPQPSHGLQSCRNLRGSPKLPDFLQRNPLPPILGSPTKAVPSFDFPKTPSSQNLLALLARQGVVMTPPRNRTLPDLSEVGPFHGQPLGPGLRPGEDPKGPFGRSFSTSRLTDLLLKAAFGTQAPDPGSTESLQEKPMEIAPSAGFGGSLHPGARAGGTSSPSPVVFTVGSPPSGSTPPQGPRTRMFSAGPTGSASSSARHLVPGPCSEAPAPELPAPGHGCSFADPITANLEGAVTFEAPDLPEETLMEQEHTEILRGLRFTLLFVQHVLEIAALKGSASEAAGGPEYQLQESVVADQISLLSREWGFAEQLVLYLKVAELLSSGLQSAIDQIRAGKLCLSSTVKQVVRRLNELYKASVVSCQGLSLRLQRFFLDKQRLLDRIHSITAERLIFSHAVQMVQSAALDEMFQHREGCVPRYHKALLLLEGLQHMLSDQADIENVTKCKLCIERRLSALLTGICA
In words: Selectivity interaction (KinomeScan (DiscoverX)) EUB0000655a ULK1. The settings on record: at 10 µM.

The target of the next assay is Focal adhesion kinase 1 (Homo sapiens, UniProt Q05397). Briefly: Selectivity interaction (KinomeScan (DiscoverX)) EUB0001079a PTK2. The settings on record: at 1 µM.
Focal adhesion kinase 1, sequence (Q05397 2-1052 limits assumed): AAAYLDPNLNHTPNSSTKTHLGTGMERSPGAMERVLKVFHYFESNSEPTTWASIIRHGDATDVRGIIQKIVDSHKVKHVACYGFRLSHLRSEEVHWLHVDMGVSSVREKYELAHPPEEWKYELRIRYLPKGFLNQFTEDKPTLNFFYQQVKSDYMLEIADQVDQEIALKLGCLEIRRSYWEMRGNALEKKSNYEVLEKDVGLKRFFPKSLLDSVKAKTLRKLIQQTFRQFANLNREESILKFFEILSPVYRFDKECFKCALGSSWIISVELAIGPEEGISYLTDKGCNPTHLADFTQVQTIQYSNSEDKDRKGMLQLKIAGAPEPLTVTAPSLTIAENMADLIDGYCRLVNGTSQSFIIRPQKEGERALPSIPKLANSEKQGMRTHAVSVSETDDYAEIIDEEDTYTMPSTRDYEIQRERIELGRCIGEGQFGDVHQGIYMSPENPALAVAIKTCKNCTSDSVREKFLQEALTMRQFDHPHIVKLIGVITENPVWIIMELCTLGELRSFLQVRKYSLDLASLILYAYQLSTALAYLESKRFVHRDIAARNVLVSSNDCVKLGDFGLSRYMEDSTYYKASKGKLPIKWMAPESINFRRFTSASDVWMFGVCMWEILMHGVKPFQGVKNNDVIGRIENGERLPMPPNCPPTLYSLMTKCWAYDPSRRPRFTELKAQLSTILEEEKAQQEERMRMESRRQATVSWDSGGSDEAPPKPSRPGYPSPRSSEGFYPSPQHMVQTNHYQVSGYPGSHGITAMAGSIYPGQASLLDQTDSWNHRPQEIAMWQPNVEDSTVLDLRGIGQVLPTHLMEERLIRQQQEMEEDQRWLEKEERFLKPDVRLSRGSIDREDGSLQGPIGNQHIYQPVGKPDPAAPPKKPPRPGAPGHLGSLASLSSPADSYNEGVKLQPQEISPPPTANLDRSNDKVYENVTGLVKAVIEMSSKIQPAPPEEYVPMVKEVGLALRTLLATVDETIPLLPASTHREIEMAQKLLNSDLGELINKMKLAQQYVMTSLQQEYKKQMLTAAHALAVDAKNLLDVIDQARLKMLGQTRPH
The target in assay [7] is Serine/threonine-protein kinase 38-like (Homo sapiens) (UniProt Q9Y2H1). Briefly: Selectivity interaction (ActivX KiNativ screen (ex vivo kinase selectivity in human PBMCs)) EUB0001619a STK38L. The settings on record: PBMC, at 1 µM. It counts as cell-based.
Serine/threonine-protein kinase 38-like (Homo sapiens), sequence (Q9Y2H1 2-464 limits assumed): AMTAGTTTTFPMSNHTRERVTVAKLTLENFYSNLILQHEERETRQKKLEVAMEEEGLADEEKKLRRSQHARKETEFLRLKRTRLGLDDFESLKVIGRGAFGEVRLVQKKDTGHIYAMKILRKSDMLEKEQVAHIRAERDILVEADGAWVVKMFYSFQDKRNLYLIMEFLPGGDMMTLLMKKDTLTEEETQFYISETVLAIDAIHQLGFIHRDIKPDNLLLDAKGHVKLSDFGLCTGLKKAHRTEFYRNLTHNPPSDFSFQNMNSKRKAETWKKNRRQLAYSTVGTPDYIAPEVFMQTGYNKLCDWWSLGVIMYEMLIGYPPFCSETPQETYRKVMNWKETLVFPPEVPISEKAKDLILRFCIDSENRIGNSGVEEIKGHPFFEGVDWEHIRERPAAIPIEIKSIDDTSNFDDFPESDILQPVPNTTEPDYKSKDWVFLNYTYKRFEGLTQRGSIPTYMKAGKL
Assay [8] concerns the target Tyrosine-protein kinase Blk (Homo sapiens) (UniProt P51451). In words: Selectivity interaction (Kinase panel (Invitrogen)) EUB0000639a BLK. The settings on record: at 200 nM.
Assay [9] concerns the target Serine/threonine-protein kinase PLK1 (Homo sapiens, UniProt P53350). In words: Selectivity interaction (ActivX KiNativ screen (kinase selectivity in THP-1 cell lysates)) EUB0000639a PLK1. It counts as subcellular. The settings on record: lysate, at 0.01 µM.
In assay [10] the target is Tyrosine-protein kinase ABL1 (Homo sapiens, UniProt P00519). In words: Selectivity interaction (ActivX KiNativ screen (kinase selectivity in THP-1 cell lysates)) EUB0000639a ABL1. As to conditions: lysate, at 5 µM. It counts as subcellular.
In assay [11] the target is Protein kinase C beta type (Homo sapiens, UniProt P05771). Briefly: Selectivity interaction (Kinase screening (Nanosyn)) EUB0000604a PRKCB.
For assay [12], the target named is Fibroblast growth factor receptor 4 (Homo sapiens, UniProt P22455). Briefly: Selectivity interaction (KinomeScan (DiscoverX)) EUB0000695a FGFR4. As to conditions: at 100 nM.

SMILES strings stand for the structures.

Tyrosine-protein kinase Blk (Homo sapiens), sequence (P51451 2-505 limits assumed): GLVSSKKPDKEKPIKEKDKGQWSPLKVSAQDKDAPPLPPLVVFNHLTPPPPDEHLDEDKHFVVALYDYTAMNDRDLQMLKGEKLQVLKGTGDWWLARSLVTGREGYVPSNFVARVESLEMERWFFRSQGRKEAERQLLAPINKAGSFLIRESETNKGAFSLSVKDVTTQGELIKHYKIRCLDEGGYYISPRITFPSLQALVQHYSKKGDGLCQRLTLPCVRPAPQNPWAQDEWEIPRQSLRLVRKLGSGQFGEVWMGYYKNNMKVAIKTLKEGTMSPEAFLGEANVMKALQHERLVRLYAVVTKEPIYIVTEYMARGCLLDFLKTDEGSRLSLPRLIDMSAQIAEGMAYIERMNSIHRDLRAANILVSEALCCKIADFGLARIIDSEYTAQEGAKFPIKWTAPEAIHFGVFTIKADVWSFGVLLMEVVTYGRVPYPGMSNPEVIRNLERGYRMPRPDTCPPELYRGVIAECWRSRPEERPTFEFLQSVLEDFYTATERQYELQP
Serine/threonine-protein kinase PLK1, sequence (P53350 whole entry): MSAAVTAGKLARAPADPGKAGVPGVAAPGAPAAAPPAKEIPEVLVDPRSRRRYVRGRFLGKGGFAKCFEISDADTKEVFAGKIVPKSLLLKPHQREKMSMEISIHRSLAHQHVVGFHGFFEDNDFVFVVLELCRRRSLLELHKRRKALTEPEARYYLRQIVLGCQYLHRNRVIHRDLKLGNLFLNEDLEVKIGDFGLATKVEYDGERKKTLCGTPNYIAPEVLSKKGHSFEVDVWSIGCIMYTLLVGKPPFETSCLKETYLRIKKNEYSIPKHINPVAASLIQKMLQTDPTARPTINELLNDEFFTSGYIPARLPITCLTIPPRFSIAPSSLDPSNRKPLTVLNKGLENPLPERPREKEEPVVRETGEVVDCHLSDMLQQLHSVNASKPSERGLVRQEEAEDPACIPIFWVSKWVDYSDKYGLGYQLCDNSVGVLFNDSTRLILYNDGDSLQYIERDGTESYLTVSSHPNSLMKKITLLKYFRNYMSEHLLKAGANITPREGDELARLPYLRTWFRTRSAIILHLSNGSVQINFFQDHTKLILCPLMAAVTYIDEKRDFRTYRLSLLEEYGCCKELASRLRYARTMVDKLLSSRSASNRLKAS

On to `Cn1cc(-n2cnc3c(NCc4nc5cc(Cl)c(Cl)cc5[nH]4)nc(N4CCOCC4)nc32)cn1`, for which the % of control in assay [1] is 1.86%. `Cc1cc([C@@H](C)Nc2ccccc2C(=O)O)c2nc(N3CCOCC3)cc(=O)n2c1` [AZD-6482]: the % of control in assay [2] worked out at 82%. Consider `CC(C)(O)[C@H](F)CN1Cc2cc(NC(=O)c3cnn4cccnc34)c(N3CCOCC3)cc2C1=O`, for which the dTM in [3] turned out to be 0.1 K. `COc1cc(N(C)c2ccnc3ccc(C(F)(F)F)cc23)cc(OC)c1OC` showed a % binding in [4] of 100%.

Take `CN(C)CCOc1ccc(-c2nc(-c3ccncc3)c(-c3ccc4c(c3)CC/C4=N\O)[nH]2)cc1`: the % of control turned out to be 100% in assay [5] and 98% in [6]. The compound `Nc1cnc(N2CCc3cc(S(=O)(=O)Nc4c(F)cc(Cl)cc4F)cc(N4CCCC4=O)c32)nc1` [TP-020n] displayed a % of control at Focal adhesion kinase 1 of 99%. On to `N#Cc1cccc(-c2c[nH]c3ncnc(N4CCOCC4)c23)c1`, for which the % of inhibition in assay [7] came to 22%. On to `CC[C@@H]1[C@H](F)C(=O)N[C@@H]1COc1nccc2cc(C(N)=O)c(OC)cc12` [ZIMLOVISERTIB], for which the % of inhibition was 4.04% in assay [8], -0.3% in assay [9] and 30.7% in assay [10].

For the compound `Cc1cnc(Nc2ccc(F)cc2Cl)nc1-c1c[nH]c(C(=O)N[C@H](CO)c2cccc(Cl)c2)c1`, the % of inhibition in assay [11] is 4%. In turn, `Cc1cc(F)c(C(=O)Nc2cccc(-c3nncn3C(C)C)n2)cc1-n1cnc(C2CC2)c1` showed a % of control in assay [12] of 100%.
